Results reported in PubChem BioAssay (NCI).
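Tested at 5 concentrations; 48 h exposure; 96-well plates; endpoints linearly interpolated, else capped at highest concentration. TGI: concentration producing complete growth inhibition.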

How the values were obtained:
Experiment in all cases: NCI-60 cell line screen, 48 h
786-0 renal = system: 786-0 renal
A498 renal = system: A498 renal
A549 NSCLC = system: A549 NSCLC
ACHN renal = system: ACHN renal
BT-549 breast = system: BT-549 breast
CAKI-1 renal = system: CAKI-1 renal
CCRF-CEM leukemia = system: CCRF-CEM leukemia
COLO 205 colon = system: COLO 205 colon
DU-145 prostate = system: DU-145 prostate
EKVX NSCLC = system: EKVX NSCLC
HCC-2998 colon = system: HCC-2998 colon
HCT-116 colon = system: HCT-116 colon
HCT-15 colon = system: HCT-15 colon
HL-60(TB) leukemia = system: HL-60(TB) leukemia
HOP-62 NSCLC = system: HOP-62 NSCLC
HOP-92 NSCLC = system: HOP-92 NSCLC
HS 578T breast = system: HS 578T breast
HT29 colon = system: HT29 colon
IGROV1 ovarian = system: IGROV1 ovarian
K-562 leukemia = system: K-562 leukemia
KM12 colon = system: KM12 colon
LOX IMVI melanoma = system: LOX IMVI melanoma
M14 melanoma = system: M14 melanoma
MALME-3M melanoma = system: MALME-3M melanoma
MCF7 breast = system: MCF7 breast
MDA-MB-231 breast = system: MDA-MB-231 breast
MDA-MB-435 = system: MDA-MB-435
MDA-N = system: MDA-N
MOLT-4 leukemia = system: MOLT-4 leukemia
NCI-H226 lung = system: NCI-H226 lung
NCI-H23 lung = system: NCI-H23 lung
NCI-H460 lung = system: NCI-H460 lung
NCI-H522 lung = system: NCI-H522 lung
NCI/ADR-RES ovarian = system: NCI/ADR-RES ovarian
OVCAR-3 ovarian = system: OVCAR-3 ovarian
OVCAR-4 ovarian = system: OVCAR-4 ovarian
OVCAR-8 ovarian = system: OVCAR-8 ovarian
PC-3 prostate = system: PC-3 prostate
RPMI-8226 leukemia = system: RPMI-8226 leukemia
RXF 393 renal = system: RXF 393 renal
SF-268 CNS = system: SF-268 CNS
SF-295 CNS = system: SF-295 CNS
SF-539 CNS = system: SF-539 CNS
SK-MEL-28 melanoma = system: SK-MEL-28 melanoma
SK-MEL-5 melanoma = system: SK-MEL-5 melanoma
SN12C renal = system: SN12C renal
SNB-19 CNS = system: SNB-19 CNS
SNB-75 CNS = system: SNB-75 CNS
SR leukemia = system: SR leukemia
SW-620 colon = system: SW-620 colon
T-47D breast = system: T-47D breast
TK-10 renal = system: TK-10 renal
U251 CNS = system: U251 CNS
UACC-257 melanoma = system: UACC-257 melanoma
UACC-62 melanoma = system: UACC-62 melanoma
UO-31 renal = system: UO-31 renal
OVCAR-5 ovarian = system: OVCAR-5 ovarian
SK-MEL-2 melanoma = system: SK-MEL-2 melanoma
SK-OV-3 ovarian = system: SK-OV-3 ovarian

Structure (SMILES): CN(C)Cc1cc(N=Nc2ccc(Cl)c(Cl)c2)ccc1O
- TGI (786-0 renal): 24.2 µM
- TGI (A498 renal): 23.9 µM
- TGI (A549 NSCLC): 27.5 µM
- TGI (ACHN renal): 16.2 µM
- TGI (BT-549 breast): 27 µM
- TGI (CAKI-1 renal): 25.4 µM
- TGI (CCRF-CEM leukemia): 20 µM
- TGI (COLO 205 colon): 8.26 µM
- TGI (DU-145 prostate): 17.6 µM
- TGI (EKVX NSCLC): 25.6 µM
- TGI (HCC-2998 colon): 24.4 µM
- TGI (HCT-116 colon): 29.8 µM
- TGI (HCT-15 colon): 19.1 µM
- TGI (HL-60(TB) leukemia): 9.44 µM
- TGI (HOP-62 NSCLC): 15.3 µM
- TGI (HOP-92 NSCLC): 22.3 µM
- TGI (HS 578T breast): 21.9 µM
- TGI (HT29 colon): 20.4 µM
- TGI (IGROV1 ovarian): 15.9 µM
- TGI (K-562 leukemia): 14.1 µM
- TGI (KM12 colon): 16.5 µM
- TGI (LOX IMVI melanoma): 17.9 µM
- TGI (M14 melanoma): 31.9 µM
- TGI (MALME-3M melanoma): 29.6 µM
- TGI (MCF7 breast): 18.1 µM
- TGI (MDA-MB-231 breast): 18.2 µM
- TGI (MDA-MB-435): 23.9 µM
- TGI (MDA-N): 23.5 µM
- TGI (MOLT-4 leukemia): 24.4 µM
- TGI (NCI-H226 lung): 40.7 µM
- TGI (NCI-H23 lung): 28.1 µM
- TGI (NCI-H460 lung): 19.8 µM
- TGI (NCI-H522 lung): 16.2 µM
- TGI (NCI/ADR-RES ovarian): 23.5 µM
- TGI (OVCAR-3 ovarian): 19.2 µM
- TGI (OVCAR-4 ovarian): 20.8 µM
- TGI (OVCAR-8 ovarian): 25.5 µM
- TGI (PC-3 prostate): 23.8 µM
- TGI (RPMI-8226 leukemia): 38.8 µM
- TGI (RXF 393 renal): 10.7 µM
- TGI (SF-268 CNS): 18.7 µM
- TGI (SF-295 CNS): 31.9 µM
- TGI (SF-539 CNS): 38.5 µM
- TGI (SK-MEL-28 melanoma): 26.5 µM
- TGI (SK-MEL-5 melanoma): 25.2 µM
- TGI (SN12C renal): 27.8 µM
- TGI (SNB-19 CNS): 27.6 µM
- TGI (SNB-75 CNS): 20.3 µM
- TGI (SR leukemia): 28.6 µM
- TGI (SW-620 colon): 23.1 µM
- TGI (T-47D breast): 23.2 µM
- TGI (TK-10 renal): 22.9 µM
- TGI (U251 CNS): 23.6 µM
- TGI (UACC-257 melanoma): 30.5 µM
- TGI (UACC-62 melanoma): 19.4 µM
- TGI (UO-31 renal): 11.9 µM

Structure (SMILES): CCn1c2c(c3c(C(=O)OC)c(O)ccc31)C(=O)c1ccccc1C2=O
- TGI (786-0 renal): 25.4 µM
- TGI (A549 NSCLC): 38.9 µM
- TGI (ACHN renal): 21.9 µM
- TGI (BT-549 breast): 39.5 µM
- TGI (CAKI-1 renal): 94.6 µM
- TGI (CCRF-CEM leukemia): 43.6 µM
- TGI (COLO 205 colon): 33 µM
- TGI (DU-145 prostate): 38.9 µM
- TGI (EKVX NSCLC): 59.7 µM
- TGI (HCC-2998 colon): 34.9 µM
- TGI (HCT-116 colon): 26.5 µM
- TGI (HCT-15 colon): 30.1 µM
- TGI (HL-60(TB) leukemia): 57.3 µM
- TGI (HOP-62 NSCLC): 30.1 µM
- TGI (HOP-92 NSCLC): 32.8 µM
- TGI (HS 578T breast): 55.3 µM
- TGI (HT29 colon): 36.5 µM
- TGI (IGROV1 ovarian): 15.3 µM
- TGI (K-562 leukemia): > 100 µM
- TGI (KM12 colon): 34.6 µM
- TGI (LOX IMVI melanoma): 71.6 µM
- TGI (M14 melanoma): 28.3 µM
- TGI (MALME-3M melanoma): 35 µM
- TGI (MCF7 breast): 70.8 µM
- TGI (MDA-MB-231 breast): 51.5 µM
- TGI (MDA-MB-435): 32.4 µM
- TGI (MDA-N): 29.9 µM
- TGI (MOLT-4 leukemia): 61.5 µM
- TGI (NCI-H226 lung): 34 µM
- TGI (NCI-H23 lung): 48.7 µM
- TGI (NCI-H460 lung): 27.9 µM
- TGI (NCI-H522 lung): 23.8 µM
- TGI (NCI/ADR-RES ovarian): 66 µM
- TGI (OVCAR-3 ovarian): 63.1 µM
- TGI (OVCAR-4 ovarian): 37.5 µM
- TGI (OVCAR-5 ovarian): 42.5 µM
- TGI (OVCAR-8 ovarian): 30.7 µM
- TGI (PC-3 prostate): 42.7 µM
- TGI (RPMI-8226 leukemia): 27.2 µM
- TGI (RXF 393 renal): 52.6 µM
- TGI (SF-268 CNS): 69.6 µM
- TGI (SF-295 CNS): 47.1 µM
- TGI (SF-539 CNS): 36 µM
- TGI (SK-MEL-2 melanoma): 30.5 µM
- TGI (SK-MEL-28 melanoma): 42.6 µM
- TGI (SK-MEL-5 melanoma): 27.6 µM
- TGI (SK-OV-3 ovarian): 30.4 µM
- TGI (SN12C renal): 29.4 µM
- TGI (SNB-19 CNS): > 100 µM
- TGI (SNB-75 CNS): 39.9 µM
- TGI (SR leukemia): 46.6 µM
- TGI (SW-620 colon): 33.8 µM
- TGI (T-47D breast): 33 µM
- TGI (TK-10 renal): > 100 µM
- TGI (U251 CNS): 36.3 µM
- TGI (UACC-257 melanoma): > 100 µM
- TGI (UO-31 renal): 27.3 µM
